Reference: PMC8231556, “Inhibiting Endothelial Cell Function in Normal and Tumor Angiogenesis Using BMP Type I Receptor Macrocyclic Kinase Inhibitors” (Cancers, 2021)

Columns and labels:
GSK3B = target: T1, GSK3B (Homo sapiens, UniProt P49841); experiment: radiometric kinase profiling (33 PanQinase); format: biochemical; conditions: read-out: Inhibitory effect (%) GSK3B
T1 construct: purchased ProQinase (33PanQinase Activity Assay)
Procedure: (§1) The kinase inhibition profile of the compounds was determined by testing 96 protein kinases’ activity using a radiometric protein kinase assay (33 PanQinase® Activity Assay, Proqinase, Germany). In brief, 10 µL of non-radioactive ATP solution (in H2O), 25 µL of assay buffer/[γ-33 P]-ATP mixture, 5 µL of 0.1 μM the tested compound in 10% DMSO and 10 µL of enzyme/substrate were mixed in 96-well FlashPlatesTM (Perkin Elmer, Boston, MA, USA). The reaction was conducted at 30 °C for 60 min. To stop the reaction, 50 µL of 2% (v/v) H3PO4 was added into the protein kinase reaction cocktails. After which, with 200 µL 0.9% (w/v) NaCl twice, the incorporation of ^33 Pi (counting of “cpm”) was determined with a microplate scintillation counter (Wallac Microbeta, Boston, MA, USA). All protein kinase assays were performed using a BeckmanCoulter Biomek 2000/SL robotic system (Brea, CA, USA). The residual activity (in %) for each compound was normalized to 100% enzyme activity (untreated control) and background (negative control).

SLK = target: T2, SLK (Homo sapiens, UniProt Q9H2G2); experiment: radiometric kinase profiling (33 PanQinase); format: biochemical; conditions: read-out: Inhibitory effect (%) SLK
T2 construct: purchased ProQinase (33PanQinase Activity Assay)
Procedure: as §1

CHEK2 = target: T3, CHEK2 (Homo sapiens, UniProt O96017); experiment: radiometric kinase profiling (33 PanQinase); format: biochemical; conditions: read-out: Inhibitory effect (%) CHEK2
T3 construct: purchased Proqinase, Germany
Procedure: as §1

GRK6 = target: T4, GRK6 (Homo sapiens, UniProt P43250); experiment: radiometric kinase profiling (33 PanQinase); format: biochemical; conditions: read-out: Inhibitory effect (%) GRK6
T4 construct: purchased ProQinase (33PanQinase Activity Assay)
Procedure: as §1

CHEK1 = target: T5, CHEK1 (Homo sapiens, UniProt O14757); experiment: radiometric kinase profiling (33 PanQinase); format: biochemical; conditions: read-out: Inhibitory effect (%) CHEK1
T5 construct: purchased Proqinase, Germany
T5 sequence (O14757 1-476): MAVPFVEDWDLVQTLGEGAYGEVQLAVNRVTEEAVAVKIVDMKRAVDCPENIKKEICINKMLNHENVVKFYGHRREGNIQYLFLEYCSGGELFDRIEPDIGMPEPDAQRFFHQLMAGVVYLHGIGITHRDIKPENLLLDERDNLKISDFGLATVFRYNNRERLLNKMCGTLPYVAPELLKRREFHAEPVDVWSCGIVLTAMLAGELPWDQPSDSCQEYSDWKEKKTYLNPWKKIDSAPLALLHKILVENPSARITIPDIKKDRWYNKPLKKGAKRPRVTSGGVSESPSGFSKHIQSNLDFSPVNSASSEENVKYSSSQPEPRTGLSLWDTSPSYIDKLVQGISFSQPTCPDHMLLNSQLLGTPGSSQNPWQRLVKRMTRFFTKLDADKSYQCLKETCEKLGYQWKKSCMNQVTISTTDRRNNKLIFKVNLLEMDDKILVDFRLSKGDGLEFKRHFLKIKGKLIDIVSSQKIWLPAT
Procedure: as §1

CDK4_cyclinD1 = target: T6, CDK4_cyclinD1 (Homo sapiens, UniProt P11802); experiment: radiometric kinase profiling (33 PanQinase); format: biochemical; conditions: read-out: Inhibitory effect (%) CDK4_cyclinD1
T6 construct: purchased Proqinase, Germany
Procedure: as §1

GSG2 = target: T7, GSG2 (Homo sapiens, UniProt Q8TF76); experiment: radiometric kinase profiling (33 PanQinase); format: biochemical; conditions: read-out: Inhibitory effect (%) GSG2
T7 construct: purchased ProQinase (33PanQinase Activity Assay)
T7 sequence (Q8TF76 1-798): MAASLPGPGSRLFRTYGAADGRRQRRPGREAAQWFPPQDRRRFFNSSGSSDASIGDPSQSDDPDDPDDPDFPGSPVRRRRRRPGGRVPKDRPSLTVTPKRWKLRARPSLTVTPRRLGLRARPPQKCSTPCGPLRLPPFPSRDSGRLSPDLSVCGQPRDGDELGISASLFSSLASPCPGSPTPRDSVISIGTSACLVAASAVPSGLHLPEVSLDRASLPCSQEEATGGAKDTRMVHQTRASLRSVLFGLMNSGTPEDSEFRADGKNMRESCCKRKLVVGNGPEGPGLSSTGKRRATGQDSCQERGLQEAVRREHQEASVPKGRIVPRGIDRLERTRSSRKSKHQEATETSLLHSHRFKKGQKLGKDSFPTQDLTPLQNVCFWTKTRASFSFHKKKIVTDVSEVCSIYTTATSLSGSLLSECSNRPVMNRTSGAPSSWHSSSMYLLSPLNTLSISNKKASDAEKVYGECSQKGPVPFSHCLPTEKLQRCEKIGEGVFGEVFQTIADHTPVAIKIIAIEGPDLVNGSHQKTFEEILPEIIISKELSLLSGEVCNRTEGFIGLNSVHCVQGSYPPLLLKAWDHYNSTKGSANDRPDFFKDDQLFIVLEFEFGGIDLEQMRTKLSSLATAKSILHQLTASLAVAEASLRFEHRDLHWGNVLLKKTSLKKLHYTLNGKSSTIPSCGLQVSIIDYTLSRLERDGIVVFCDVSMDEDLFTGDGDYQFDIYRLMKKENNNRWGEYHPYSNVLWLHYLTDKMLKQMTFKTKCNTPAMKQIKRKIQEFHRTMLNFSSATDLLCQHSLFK
Procedure: as §1

RET = target: T8, RET (Homo sapiens, UniProt P07949); experiment: radiometric kinase profiling (33 PanQinase); format: biochemical; conditions: read-out: Inhibitory effect (%) RET
T8 construct: purchased ProQinase (33PanQinase Activity Assay)
Procedure: as §1

NEK6 = target: T9, NEK6 (Homo sapiens, UniProt Q9HC98); experiment: radiometric kinase profiling (33 PanQinase); format: biochemical; conditions: read-out: Inhibitory effect (%) NEK6
T9 construct: purchased ProQinase (33PanQinase Activity Assay)
Procedure: as §1

JAK2 = target: T10, JAK2 (Homo sapiens, UniProt O60674); experiment: radiometric kinase profiling (33 PanQinase); format: biochemical; conditions: read-out: Inhibitory effect (%) JAK2
T10 construct: purchased ProQinase (33PanQinase Activity Assay)
Procedure: as §1

[1] = system: VEGF-induced DLL4 and NR4 A1 mRNA expression; experiment: RT-qPCR of VEGF-induced DLL4 and NR4A1 mRNA in HUVECs; format: cell-based, human; conditions: 0.5 µM compound, VEGF 40 ng/mL
Procedure: EA.hy926 cells or HUVECs were seeded in 6-well plates and cultured until they reached 80% confluence. The medium was replaced with a serum-free medium for a 4 h starvation. For EA.hy926 cells, the compounds were added at a final concentration of 0.5 μM for 30 min, followed by BMP9 (1 ng/mL), TGF-β2 (1 ng/mL), or vehicle control addition and cultured for another 3 h before the cells were harvested. To investigate VEGF-induced cellular response, HUVECs were exposed to VEGF (40 ng/mL) for 1 h after 30 min pre-treatment with the compounds.
After samples were collected, total RNA was isolated and purified using the NucleoSpin RNA II kit (740955, BIOKE, Leiden, the Netherlands), following the manufacturer’s instructions. Then, the mRNA was used as a template to synthesize cDNA by performing reverse transcription with the RevertAid First Strand cDNA Synthesis Kit (K1621, ThermoFisher Scientific). Gene expression levels were determined by RT-qPCR analysis using the GoTaq qPCR Master Mix (A6001, Promega, Madison, WI, USA) and normalized to GAPDH expression. All the experiments were repeated three times, and results from three biologically independent experiments are shown.

T4 sequence (P43250 whole entry): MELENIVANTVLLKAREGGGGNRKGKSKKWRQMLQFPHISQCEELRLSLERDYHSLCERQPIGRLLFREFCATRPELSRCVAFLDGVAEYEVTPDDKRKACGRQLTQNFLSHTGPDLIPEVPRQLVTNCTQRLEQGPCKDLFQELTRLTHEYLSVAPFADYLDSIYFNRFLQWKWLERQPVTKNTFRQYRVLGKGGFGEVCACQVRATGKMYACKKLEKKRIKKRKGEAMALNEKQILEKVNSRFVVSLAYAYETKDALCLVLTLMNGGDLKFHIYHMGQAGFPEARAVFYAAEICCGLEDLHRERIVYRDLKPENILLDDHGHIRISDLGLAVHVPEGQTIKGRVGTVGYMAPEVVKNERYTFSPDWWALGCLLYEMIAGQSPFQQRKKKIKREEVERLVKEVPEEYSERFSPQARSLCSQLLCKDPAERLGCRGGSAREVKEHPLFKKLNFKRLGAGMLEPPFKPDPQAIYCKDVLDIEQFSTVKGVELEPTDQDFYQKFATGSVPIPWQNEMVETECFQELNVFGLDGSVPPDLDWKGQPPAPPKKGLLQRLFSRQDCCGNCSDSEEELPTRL
T10 sequence (O60674 whole entry): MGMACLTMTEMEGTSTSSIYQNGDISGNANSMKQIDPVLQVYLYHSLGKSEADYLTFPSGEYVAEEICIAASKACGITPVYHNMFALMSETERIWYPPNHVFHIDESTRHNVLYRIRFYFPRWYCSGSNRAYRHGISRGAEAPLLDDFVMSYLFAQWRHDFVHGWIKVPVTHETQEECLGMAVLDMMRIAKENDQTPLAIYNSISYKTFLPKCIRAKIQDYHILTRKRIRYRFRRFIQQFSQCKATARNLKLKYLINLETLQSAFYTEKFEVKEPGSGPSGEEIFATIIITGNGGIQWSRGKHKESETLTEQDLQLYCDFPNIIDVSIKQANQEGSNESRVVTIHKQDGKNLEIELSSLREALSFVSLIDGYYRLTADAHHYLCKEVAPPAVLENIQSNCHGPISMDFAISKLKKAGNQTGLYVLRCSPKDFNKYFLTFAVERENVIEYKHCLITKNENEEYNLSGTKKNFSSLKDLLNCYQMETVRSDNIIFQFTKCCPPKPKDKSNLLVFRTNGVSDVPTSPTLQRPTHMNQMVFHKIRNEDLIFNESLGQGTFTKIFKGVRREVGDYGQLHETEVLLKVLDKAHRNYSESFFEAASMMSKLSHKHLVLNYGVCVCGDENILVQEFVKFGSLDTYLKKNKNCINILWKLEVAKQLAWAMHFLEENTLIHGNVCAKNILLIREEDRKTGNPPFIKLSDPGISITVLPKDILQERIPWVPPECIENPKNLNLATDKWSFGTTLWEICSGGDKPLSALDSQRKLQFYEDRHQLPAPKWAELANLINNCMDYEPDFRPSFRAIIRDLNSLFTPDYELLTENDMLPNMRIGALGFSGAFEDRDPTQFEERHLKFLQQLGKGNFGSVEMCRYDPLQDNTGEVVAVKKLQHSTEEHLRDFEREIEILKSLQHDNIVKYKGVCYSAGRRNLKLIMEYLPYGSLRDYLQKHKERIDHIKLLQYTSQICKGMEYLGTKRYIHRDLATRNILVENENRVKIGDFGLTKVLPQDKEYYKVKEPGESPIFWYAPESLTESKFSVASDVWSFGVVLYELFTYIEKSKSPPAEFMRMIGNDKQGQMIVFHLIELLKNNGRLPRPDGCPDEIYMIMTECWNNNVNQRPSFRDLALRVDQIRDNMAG
T3 sequence (O96017 whole entry): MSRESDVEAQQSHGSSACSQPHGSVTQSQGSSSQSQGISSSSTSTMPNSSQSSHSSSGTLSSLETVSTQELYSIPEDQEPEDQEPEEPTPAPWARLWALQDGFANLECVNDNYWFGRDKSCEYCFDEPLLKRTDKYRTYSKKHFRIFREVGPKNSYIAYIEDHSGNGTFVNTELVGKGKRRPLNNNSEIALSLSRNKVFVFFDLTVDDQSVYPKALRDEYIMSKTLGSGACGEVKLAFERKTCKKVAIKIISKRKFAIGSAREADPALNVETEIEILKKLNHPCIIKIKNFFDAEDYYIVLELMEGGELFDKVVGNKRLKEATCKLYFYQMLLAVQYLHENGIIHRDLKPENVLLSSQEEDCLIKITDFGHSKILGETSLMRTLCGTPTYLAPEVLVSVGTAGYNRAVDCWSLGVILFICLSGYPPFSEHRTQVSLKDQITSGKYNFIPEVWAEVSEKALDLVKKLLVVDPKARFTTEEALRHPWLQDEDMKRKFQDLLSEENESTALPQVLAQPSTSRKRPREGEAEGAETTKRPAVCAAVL
T6 sequence (P11802 whole entry): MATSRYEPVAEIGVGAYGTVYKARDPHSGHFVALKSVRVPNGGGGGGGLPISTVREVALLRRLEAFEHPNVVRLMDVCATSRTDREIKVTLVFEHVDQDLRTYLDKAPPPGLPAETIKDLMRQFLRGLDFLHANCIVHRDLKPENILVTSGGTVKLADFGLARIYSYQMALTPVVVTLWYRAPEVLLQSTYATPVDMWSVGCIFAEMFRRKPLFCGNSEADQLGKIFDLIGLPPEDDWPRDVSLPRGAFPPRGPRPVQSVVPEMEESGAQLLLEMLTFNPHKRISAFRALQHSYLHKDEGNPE
T6 sequence (P24385 whole entry partner): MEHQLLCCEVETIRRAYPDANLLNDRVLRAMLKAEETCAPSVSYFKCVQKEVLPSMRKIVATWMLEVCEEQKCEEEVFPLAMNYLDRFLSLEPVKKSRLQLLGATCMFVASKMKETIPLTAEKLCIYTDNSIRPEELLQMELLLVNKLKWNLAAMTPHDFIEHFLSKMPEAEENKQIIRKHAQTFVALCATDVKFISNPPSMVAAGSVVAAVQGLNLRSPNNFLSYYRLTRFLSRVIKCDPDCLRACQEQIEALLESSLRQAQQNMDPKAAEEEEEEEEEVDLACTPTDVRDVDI
T8 sequence (P07949 29-1114): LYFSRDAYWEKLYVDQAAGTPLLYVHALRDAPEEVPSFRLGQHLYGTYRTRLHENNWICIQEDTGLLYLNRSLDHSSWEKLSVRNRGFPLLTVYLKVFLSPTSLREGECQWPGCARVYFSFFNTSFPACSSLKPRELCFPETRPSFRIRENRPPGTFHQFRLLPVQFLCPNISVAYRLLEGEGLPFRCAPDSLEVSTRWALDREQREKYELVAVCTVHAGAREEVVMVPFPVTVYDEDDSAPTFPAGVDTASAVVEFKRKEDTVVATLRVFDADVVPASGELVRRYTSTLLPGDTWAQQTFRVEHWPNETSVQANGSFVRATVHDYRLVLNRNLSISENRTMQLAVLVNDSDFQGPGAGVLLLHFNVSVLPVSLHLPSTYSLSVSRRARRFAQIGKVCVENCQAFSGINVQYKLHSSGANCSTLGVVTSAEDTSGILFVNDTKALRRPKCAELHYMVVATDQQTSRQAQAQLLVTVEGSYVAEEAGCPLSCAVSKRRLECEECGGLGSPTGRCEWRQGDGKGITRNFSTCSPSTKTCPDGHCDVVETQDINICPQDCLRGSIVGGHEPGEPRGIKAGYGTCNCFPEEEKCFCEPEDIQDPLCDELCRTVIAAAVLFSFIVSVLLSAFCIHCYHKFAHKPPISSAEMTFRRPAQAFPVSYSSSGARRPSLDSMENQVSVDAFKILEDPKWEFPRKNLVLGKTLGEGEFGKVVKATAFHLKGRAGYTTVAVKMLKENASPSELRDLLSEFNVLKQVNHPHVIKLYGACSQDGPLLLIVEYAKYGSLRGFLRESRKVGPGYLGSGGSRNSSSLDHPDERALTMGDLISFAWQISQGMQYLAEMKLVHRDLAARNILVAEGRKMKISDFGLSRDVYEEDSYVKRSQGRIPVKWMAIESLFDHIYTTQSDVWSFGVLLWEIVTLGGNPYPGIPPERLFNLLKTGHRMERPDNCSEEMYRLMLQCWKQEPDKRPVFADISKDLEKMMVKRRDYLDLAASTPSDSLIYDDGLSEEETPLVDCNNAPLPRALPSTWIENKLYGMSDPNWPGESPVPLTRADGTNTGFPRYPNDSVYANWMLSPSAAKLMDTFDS
T9 sequence (Q9HC98 whole entry): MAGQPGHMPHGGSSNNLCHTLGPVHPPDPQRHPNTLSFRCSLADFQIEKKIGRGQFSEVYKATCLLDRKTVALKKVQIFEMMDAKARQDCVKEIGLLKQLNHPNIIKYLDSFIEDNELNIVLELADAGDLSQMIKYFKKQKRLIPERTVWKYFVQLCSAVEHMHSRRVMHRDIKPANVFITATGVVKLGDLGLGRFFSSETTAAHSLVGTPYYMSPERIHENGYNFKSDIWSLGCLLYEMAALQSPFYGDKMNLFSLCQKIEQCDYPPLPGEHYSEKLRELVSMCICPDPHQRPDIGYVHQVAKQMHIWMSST
T1 sequence (P49841 whole entry): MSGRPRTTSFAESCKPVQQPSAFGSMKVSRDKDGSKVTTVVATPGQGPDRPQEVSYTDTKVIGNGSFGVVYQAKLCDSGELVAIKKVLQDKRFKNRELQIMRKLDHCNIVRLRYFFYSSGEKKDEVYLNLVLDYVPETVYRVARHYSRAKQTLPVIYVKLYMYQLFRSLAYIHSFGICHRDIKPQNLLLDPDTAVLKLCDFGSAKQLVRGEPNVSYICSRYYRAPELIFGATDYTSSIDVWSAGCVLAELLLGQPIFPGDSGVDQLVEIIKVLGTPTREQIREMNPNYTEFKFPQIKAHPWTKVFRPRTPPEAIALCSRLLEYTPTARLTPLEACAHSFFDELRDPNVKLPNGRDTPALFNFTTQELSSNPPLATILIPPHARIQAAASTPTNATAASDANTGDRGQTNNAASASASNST

| Compound | inhibition at 0.1 µM (GSK3B) [%] | inhibition at 0.1 µM (SLK) [%] | inhibition at 0.1 µM (CHEK2) [%] | inhibition at 0.1 µM (GRK6) [%] | inhibition at 0.1 µM (CHEK1) [%] | inhibition at 0.1 µM (CDK4_cyclinD1) [%] | inhibition at 0.1 µM (GSG2) [%] | inhibition at 0.1 µM (RET) [%] | inhibition at 0.1 µM (NEK6) [%] | inhibition at 0.1 µM (JAK2) [%] | effect on VEGF-induced DLL4 mRNA expression [1] | effect on VEGF-induced NR4 A1 mRNA expression [1] |
| --- | --- | --- | --- | --- | --- | --- | --- | --- | --- | --- | --- | --- |
| c1ccc2c(-c3cnn4cc(-c5ccc(N6CCNCC6)cc5)cnc34)ccnc2c1 [LDN-193189, reference compound] | -28.2 | -18.4 | -0.88 | -1.81 | -34.6 | -10.1 | -5.75 | 10.8 | 7.05 | 5.83 |  |  |
| CNC(=O)c1ccccc1Sc1ccc2c(/C=C/c3ccccn3)n[nH]c2c1 [Axitinib, reference compound] |  |  |  |  |  |  |  |  |  |  | inhibited | inhibited |
| CN1CCC(=O)NCCNc2ccn3ncc(c3n2)-c2cccc(c2)C1 [OD29] | 3.34 | 27.7 | -0.87 | 0.04 | 4.25 | -13.8 | 34.6 | 27.1 | 4.01 | 14.4 | inhibited | inhibited |
| CN1CCc2cccc(c2)Nc2nccc(n2)N2CCCc3cc(ccc32)C1 [OD16] | 1.33 | 26.5 | 7.12 | -2.14 | 0.85 | 20.3 | 6.26 | -29.1 | -21.1 | 50.2 | did inhibit |  |
